Data from ChEMBL document CHEMBL1139542, “Synthesis, biological evaluation, and three-dimensional quantitative structure-activity relationship study of small-molecule positive modulators of adrenomedullin” (J Med Chem, 2005).

test system: Adrenomedullin (Homo sapiens); test: Affinity against human adrenomedullin

SMILES | Affinity [%]
c1ccc(OCc2nnc(CCCCc3nnc(COc4ccccc4)o3)o2)cc1 | 18
c1ccc(Cn2c(CCCCc3nnc(COc4ccccc4)n3Cc3ccccc3)nnc2COc2ccccc2)cc1 | 19
O=C(CCCCCCC(=O)NNC(=O)COc1ccccc1)NNC(=O)COc1ccccc1 | 20
O=C(CCCCCCCC(=O)NNC(=O)COc1ccccc1)NNC(=O)COc1ccccc1 | 7
O=C(CCCCC(=O)NNC(=O)COc1ccccc1)NNC(=O)COc1ccccc1 | 1
c1ccc(Cn2c(CCCCCc3nnc(COc4ccccc4)n3Cc3ccccc3)nnc2COc2ccccc2)cc1 | 14
O=C(CCCCCCCCC(=O)NNC(=O)COc1ccccc1)NNC(=O)COc1ccccc1 | 25
Oc1ccc2ccccc2c1OCc1nnc(CCCCCCCCc2nnc(COc3c(O)ccc4ccccc34)n2Nc2ccccc2)n1Nc1ccccc1 | 24
c1ccc(OCc2nnc(CCCCCc3nnc(COc4ccccc4)o3)o2)cc1 | 4
O=C(CCCCCC(=O)NNC(=O)COc1ccccc1)NNC(=O)COc1ccccc1 | 16
c1ccc(OCc2nnc(CCCCCCc3nnc(COc4ccccc4)o3)o2)cc1 | 10
Oc1c(OCc2nnc(CCCCCCCCc3nnc(COc4ccc5ccccc5c4O)n3Nc3ccccc3)n2Nc2ccccc2)ccc2ccccc12 | 83
c1ccc(OCc2nnc(CCCCCCCCc3nnc(COc4ccccc4)o3)o2)cc1 | 5
c1ccc(OCc2nnc(CCCCCCCc3nnc(COc4ccccc4)o3)o2)cc1 | 6

Results, then the compound that gave them:

Affinity [%] | SMILES
46 | Nn1c(CCCCCCCCc2nnc(COc3c(O)ccc4ccccc34)n2N)nnc1COc1c(O)ccc2ccccc12
4 | c1ccc(Cn2c(CCCCCCCCc3nnc(COc4ccccc4)n3Cc3ccccc3)nnc2COc2ccccc2)cc1
20 | c1ccc(Cn2c(CCCCCCCc3nnc(COc4ccccc4)n3Cc3ccccc3)nnc2COc2ccccc2)cc1
51 | Clc1ccc(OCc2nnc(CCCCCCCCc3nnc(COc4ccc(Cl)cc4)n3Nc3ccccc3)n2Nc2ccccc2)cc1
42 | Nn1c(CCCCCCCCc2nnc(COc3ccc4ccccc4c3O)n2N)nnc1COc1ccc2ccccc2c1O
81 | c1ccc(Nn2c(CCCCCCCCc3nnc(COc4ccccc4)n3Nc3ccccc3)nnc2COc2ccccc2)cc1
48 | Nn1c(CCCCCCCCc2nnc(COc3ccc(Cl)cc3Cl)n2N)nnc1COc1ccc(Cl)cc1Cl
19 | Nn1c(CCCCCCCCc2nnc(COc3ccc(Cl)cc3)n2N)nnc1COc1ccc(Cl)cc1
3 | c1ccc(Cn2c(CCCCCCc3nnc(COc4ccccc4)n3Cc3ccccc3)nnc2COc2ccccc2)cc1
68 | Clc1ccc(OCc2nnc(CCCCCCCCc3nnc(COc4ccc(Cl)cc4Cl)n3Nc3ccccc3)n2Nc2ccccc2)c(Cl)c1
